Experimental data published in paper PMC6222422, “Synthesis and Biological Evaluation of Novel Indole-Derived Thioureas” (Molecules : A Journal of Synthetic Chemistry and Natural …, 2018).
Converted amounts (≈) assume the structure as drawn.

How the values were obtained:
[1] = tested on: HSV-1; assay: microbe, parasite or virus in culture; format: cell-based, human herpes 1; details: Human alphaherpesvirus 1, Vero 76, read-out: HSV-1 EC50
[2] = tested on: Reo-1; assay: microbe, parasite or virus in culture; format: cell-based, reovirus type-1; details: Reovirus sp., BHK, read-out: Reo-1 EC50
[3] = tested on: HIV-1; assay: microbe, parasite or virus in culture; details: Human immunodeficiency virus 1, MT4, read-out: HIV-1 EC50
[4] = tested on: VSV; assay: microbe, parasite or virus in culture; format: cell-based; details: Vesicular stomatitis virus, Vero 76, read-out: VSV EC50
[5] = in vitro; details: cattle (Bos taurus)
[6] = tested on: YFV; assay: microbe, parasite or virus in culture; format: cell-based; details: Yellow fever virus, BHK, read-out: YFV EC50
[7] = in vitro; details: African green monkey (Cercopithecus aethiops)
[8] = tested on: RSV; assay: microbe, parasite or virus in culture; format: cell-based, human respiratory syncytial virus; details: for EC50: human respiratory syncytial virus, Vero 76, read-out: RSV EC50
[9] = in vitro; details: human
[10] = tested on: CV-B5; assay: microbe, parasite or virus in culture; format: cell-based, coxsackievirus B5; details: Enterovirus B, CVB5, Vero 76, read-out: CV-B5 EC50
[11] = tested on: VV; assay: microbe, parasite or virus in culture; format: cell-based; details: Orthopoxvirus vaccinia, Vero 76, read-out: VV EC50
[12] = in vitro; details: Syrian hamster (Mesocricetus auratus)
[13] = tested on: BVDV; assay: microbe, parasite or virus in culture; format: cell-based, bovine viral diarrhoea virus; details: Bovine viral diarrhea virus isolates and strains, MDBK, in Bos taurus, read-out: BVDV EC50
[14] = tested on: Sb-1; assay: microbe, parasite or virus in culture; format: cell-based, poliovirus type-1; details: Enterovirus C, Vero 76, read-out: Sb-1 EC50
[15] = tested on: B. cereus ATCC 11778; assay: MIC, twofold serial agar dilution; format: cell-based; details: Bacillus cereus, ATCC11778, 18 h, 35 °C, read-out: minimal inhibitory concentrations (MIC)
[16] = tested on: M. luteus ATCC 10240; assay: disc diffusion method; format: cell-based, Micrococcus luteus; details: Micrococcus luteus, ATCC10240, applied 400 µg per disc, dash = lack of the growth inhibition area, read-out: diameter of growth inhibitory zone (GIZ)
[17] = tested on: S. aureus ATCC 6538; assay: disc diffusion method; format: cell-based, Staphylococcus aureus; details: Staphylococcus aureus, ATCC6538, applied 400 µg per disc, dash = lack of the growth inhibition area, read-out: diameter of growth inhibitory zone (GIZ)
[18] = tested on: S. aureus ATCC 29213; assay: MIC, twofold serial agar dilution; format: cell-based; details: Staphylococcus aureus, ATCC29213, 18 h, 35 °C, read-out: minimal inhibitory concentrations (MIC)
[19] = tested on: S. aureus NCTC 4163; assay: disc diffusion method; format: cell-based, Staphylococcus aureus; details: Staphylococcus aureus, NCTC4163, applied 400 µg per disc, dash = lack of the growth inhibition area, read-out: diameter of growth inhibitory zone (GIZ)
[20] = tested on: M. luteus ATCC 10240; assay: MIC, twofold serial agar dilution; format: cell-based; details: Micrococcus luteus, ATCC10240, 18 h, 35 °C, read-out: minimal inhibitory concentrations (MIC)
[21] = tested on: B. cereus ATCC 11778; assay: disc diffusion method; format: cell-based, Bacillus cereus; details: Bacillus cereus, ATCC11778, applied 400 µg per disc, dash = lack of the growth inhibition area, read-out: diameter of growth inhibitory zone (GIZ)
[22] = tested on: B. subtilis ATCC 6633; assay: MIC, twofold serial agar dilution; format: cell-based; details: Bacillus subtilis, ATCC6633, 18 h, 35 °C, read-out: minimal inhibitory concentrations (MIC)
[23] = tested on: M. luteus ATCC 9341; assay: MIC, twofold serial agar dilution; format: cell-based; details: Micrococcus luteus, ATCC9341, 18 h, 35 °C, read-out: minimal inhibitory concentrations (MIC)
[24] = tested on: B. subtilis ATCC 6633; assay: disc diffusion method; format: cell-based, Bacillus subtilis; details: Bacillus subtilis, ATCC6633, applied 400 µg per disc, dash = lack of the growth inhibition area, read-out: diameter of growth inhibitory zone (GIZ)
[25] = tested on: M. luteus ATCC 9341; assay: disc diffusion method; format: cell-based, Micrococcus luteus; details: Micrococcus luteus, ATCC9341, applied 400 µg per disc, dash = lack of the growth inhibition area, read-out: diameter of growth inhibitory zone (GIZ)
[26] = tested on: S. aureus ATCC 25923; assay: MIC, twofold serial agar dilution; format: cell-based; details: Staphylococcus aureus, ATCC25923, 18 h, 35 °C, read-out: minimal inhibitory concentrations (MIC)
[27] = tested on: S. aureus ATCC 6538; assay: MIC, twofold serial agar dilution; format: cell-based; details: Staphylococcus aureus, ATCC6538, 18 h, 35 °C, read-out: minimal inhibitory concentrations (MIC)
[28] = tested on: S. epidermidis (MRSE); assay: MIC against hospital strains; details: Staphylococcus epidermidis
[29] = tested on: S. aureus ATCC 25923; assay: disc diffusion method; format: cell-based, Staphylococcus aureus; details: Staphylococcus aureus, ATCC25923, applied 400 µg per disc, dash = lack of the growth inhibition area, read-out: diameter of growth inhibitory zone (GIZ)
[30] = tested on: S. aureus NCTC 4163; assay: MIC, twofold serial agar dilution; format: cell-based; details: Staphylococcus aureus, NCTC4163, 18 h, 35 °C, read-out: minimal inhibitory concentrations (MIC)
[31] = tested on: S. aureus ATCC 29213; assay: disc diffusion method; format: cell-based, Staphylococcus aureus; details: Staphylococcus aureus, ATCC29213, applied 400 µg per disc, dash = lack of the growth inhibition area, read-out: diameter of growth inhibitory zone (GIZ)

S=C(NCCc1c[nH]c2ccccc12)Nc1ccccc1Cl [Compound 13, 1-(2-(1H-Indol-3-yl)ethyl)-3-(2-chlorophenyl)thiourea]
EC50 [1]: > 53 µM
EC50 [2]: > 11 µM
EC50 [3]: > 47 µM
EC50 [4]: > 53 µM
CC50 [5]: 49 µM
EC50 [6]: > 11 µM
CC50 [7]: 53 µM
EC50 [8]: > 53 µM
CC50 [9]: 47 µM
EC50 [10]: 12 ± 0.9 µM
EC50 [11]: > 53 µM
melting point: 170 to 172 °C
CC50 [12]: 11 µM
EC50 [13]: > 49 µM
EC50 [14]: > 53 µM

FC(F)(F)c1cccc(NC(=S)NCCc2c[nH]c3ccccc23)c1 [Compound 24, 1-(2-(1H-Indol-3-yl)ethyl)-3-(3-(trifluoromethyl)phenyl)thiourea]
EC50 [1]: > 16 µM
EC50 [2]: > 9 µM
EC50 [3]: > 44 µM
EC50 [4]: > 16 µM
CC50 [5]: 23 µM
EC50 [6]: > 9 µM
CC50 [7]: 16 µM
EC50 [8]: > 16 µM
CC50 [9]: 44 µM
EC50 [10]: > 16 µM
EC50 [11]: > 16 µM
melting point: 169 to 171 °C
CC50 [12]: 9 µM
EC50 [13]: > 23 µM
EC50 [14]: > 16 µM

S=C(NCCc1c[nH]c2ccccc12)Nc1ccccc1Br [Compound 15, 1-(2-(1H-Indol-3-yl)ethyl)-3-(2-bromophenyl)thiourea]
EC50 [1]: > 46 µM
EC50 [2]: > 28 µM
EC50 [3]: > 46 µM
MIC [15]: 50 µg/mL (≈ 134 µM)
EC50 [4]: > 46 µM
CC50 [5]: 48 µM
zone of inhibition at 400 µg/disc [16]: 14 mm
zone of inhibition at 400 µg/disc [17]: 12 mm
EC50 [6]: > 28 µM
CC50 [7]: 46 µM
activity against RSV (in words) [8]: moderately active
EC50 [8]: 20 ± 2.5 µM
MIC [18]: 50 µg/mL (≈ 134 µM)
zone of inhibition at 400 µg/disc [19]: 11 mm
CC50 [9]: 46 µM
MIC [20]: 50 µg/mL (≈ 134 µM)
zone of inhibition at 400 µg/disc [21]: 14 mm
EC50 [10]: > 46 µM
EC50 [11]: > 46 µM
MIC [22]: 50 µg/mL (≈ 134 µM)
MIC [23]: 200 µg/mL (≈ 534 µM)
zone of inhibition at 400 µg/disc [24]: 15 mm
zone of inhibition at 400 µg/disc [25]: 13 mm
melting point: 150 to 152 °C
MIC [26]: 100 µg/mL (≈ 267 µM)
CC50 [12]: 28 µM
MIC [27]: 50 µg/mL (≈ 134 µM)
EC50 [13]: > 48 µM
EC50 [14]: > 46 µM
MIC ([28]; hospital S. epidermidis MRSE strain 430/11): 400 µg/mL (≈ 1070 µM)
MIC ([28]; hospital S. epidermidis MRSE strain 431/11): 50 µg/mL (≈ 134 µM)
MIC ([28]; hospital S. epidermidis MRSE strain 432/11): 50 µg/mL (≈ 134 µM)
MIC ([28]; hospital S. epidermidis MRSE strain 433/11): 50 µg/mL (≈ 134 µM)
MIC ([28]; hospital S. epidermidis MRSE strain 434/11): 50 µg/mL (≈ 134 µM)
MIC ([28]; hospital S. epidermidis MRSE strain 435/11): 100 µg/mL (≈ 267 µM)
MIC ([28]; hospital S. epidermidis MRSE strain 436/11): 100 µg/mL (≈ 267 µM)
MIC ([28]; hospital S. epidermidis MRSE strain 437/11): 100 µg/mL (≈ 267 µM)
MIC ([28]; hospital S. epidermidis MRSE strain 438/11): 200 µg/mL (≈ 534 µM)
MIC ([28]; hospital S. epidermidis MRSE strain 439/11): 50 µg/mL (≈ 134 µM)
zone of inhibition at 400 µg/disc [29]: 11 mm
MIC [30]: 50 µg/mL (≈ 134 µM)
zone of inhibition at 400 µg/disc [31]: 11 mm

Fc1ccccc1NC(=S)NCCc1c[nH]c2ccccc12 [Compound 11, 1-(2-(1H-Indol-3-yl)ethyl)-3-(2-fluorophenyl)thiourea]
EC50 [1]: > 73 µM
EC50 [2]: > 34 µM
EC50 [3]: > 48 µM
EC50 [4]: > 73 µM
CC50 [5]: 69 µM
EC50 [6]: > 34 µM
CC50 [7]: 73 µM
EC50 [8]: > 73 µM
CC50 [9]: 48 µM
EC50 [10]: > 73 µM
EC50 [11]: > 73 µM
melting point: 167 to 168 °C
CC50 [12]: 34 µM
EC50 [13]: > 69 µM
EC50 [14]: > 73 µM
